Assays:
GPR35 = GPR35 (Homo sapiens, UniProt Q9HC97); details: reported by Wang et al., J. Biol. Chem. 281:22021-22028 (2006); cited from earlier work
[1] = test system: mouse GPR35 expression in 3T3-L1 adipocytes; assay: TaqMan analysis of mouse GPR35 expression in 3T3-L1 adipocytes after treatments; type: cell-based; details: 10 μM Linoleic Acid, 1 and 24 hours, serum free media; control untreated adipocytes at time 0; FIG. 8
Description: GPR35 expression in 3T3-L1 adipocytes was then analyzed after certain treatments, such as treatment with linoleic acid. Briefly, 3T3-L1 cells were differentiated into adipocytes using a standardized protocol found in Patel Y M, Lane M D. (Role of calpain in adipocyte differentiation. Proc. Natl. Acad. Sci. USA 96:1279-1284, 1999). Cells were then treated for 1 and 24 hours in serum free media containing either 50 nM insulin (Sigma Cat # I-1882), 10 μM Linoleic Acid (Calbiochem Cat # 436305 lot #B52793), 50 pg/ml IL-1Beta (R&D Systems Cat # 401-ML lot #BN034012), 0.5 ng/mL TNF-alpha (R&D Systems Cat# 410-MT lot # CS083051). Control was untreated 3T3-L1 adipocytes at time 0. RNA was then isolated using Trizol method (Invitrogen Cat # 15596-018). cDNA was made using Biorad iScript cDNA Synthesis Kit.
A 1× TaqMan supermix was made in a 5 mL polypropylene tube. Forward and Reverse primers were added to give a 300 nM final concentration; appropriate amount of probe was added to give a final concentration of 200 nM. Total volume per well was 20 μL. 2 μL was cDNA, while the other 18 μL was TaqMan supermix and nuclease-free water. The sequence for primers and the probe were: […]
The thermo cycler conditions used were: (1) initial steps: hold for 2 minutes at 50° C., then hold for 10 minutes at 95° C. […]

Chain of GPR35 (Q9HC97 whole entry, species assumed): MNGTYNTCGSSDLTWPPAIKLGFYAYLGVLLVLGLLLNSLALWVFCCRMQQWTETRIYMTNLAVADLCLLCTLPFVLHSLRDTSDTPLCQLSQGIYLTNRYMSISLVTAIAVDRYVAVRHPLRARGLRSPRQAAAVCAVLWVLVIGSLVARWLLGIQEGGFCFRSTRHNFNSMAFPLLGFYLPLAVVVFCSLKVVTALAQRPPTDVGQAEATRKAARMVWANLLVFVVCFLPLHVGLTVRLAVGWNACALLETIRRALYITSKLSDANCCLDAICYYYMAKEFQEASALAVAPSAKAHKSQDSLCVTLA

Structure (SMILES) | ligand for GPR35 (GPR35) | GPR35 expression in 3T3-L1 adipocytes [1]
O=C(O)c1cc(=O)c2ccccc2[nH]1 [kynurenic acid] | ligand for GPR35 | –
CCCCC/C=C\C/C=C\CCCCCCCC(=O)O [linoleic acid] | – | significantly increased

Reference: patent US8039219B2, “Method of using GPR35 to identify metabolic-stabilizing compounds” (Arena Pharmaceuticals, Inc., priority 2004, dated 2011)
